Experimental data published in ChEMBL document CHEMBL1149222, “Synthesis and in vitro antimycobacterial activity of novel 3-(1H-pyrrol-1-yl)-2-oxazolidinone analogues of PNU-100480” (2004).
Converted amounts (≈) assume the structure as drawn.

Tests used:
Assay type in all cases: functional
MT4 = experiment: Cytotoxicity of compound against mock-infected MT-4 cells was evaluated by MTT assay; details: Homo sapiens
Mycobacterium [1] = experiment: In vitro anti-mycobacterial activity against Mycobacterium avium complex was determined
Mycobacterium [2] = experiment: (§1) In vitro anti-mycobacterial activity against Mycobacterium smegmatis determined by the MTT method
[3] = system: Mycolicibacterium smegmatis; experiment: as §1
[4] = system: Mycobacterium tuberculosis; experiment: In vitro anti-mycobacterial activity against Mycobacterium tuberculosis ATCC 27294 was determined
[5] = system: Mycobacterium tuberculosis; experiment: In vitro anti-mycobacterial activity against Mycobacterium tuberculosis C.I. 1104 was determined
[6] = system: Mycolicibacterium fortuitum; experiment: In vitro anti-mycobacterial activity against Mycobacterium fortuitum was determined
[7] = system: Mycolicibacterium smegmatis; experiment: In vitro anti-mycobacterial activity against Mycobacterium smegmatis was determined
[8] = system: Mycobacterium tuberculosis; experiment: In vitro anti-mycobacterial activity against Mycobacterium tuberculosis ATCC 27294, determined by the MTT method
[9] = system: Mycobacterium tuberculosis; experiment: In vitro anti-mycobacterial activity against Mycobacterium tuberculosis C.I. 1104, determined by the MTT method
[10] = system: Mycolicibacterium fortuitum; experiment: In vitro anti-mycobacterial activity against Mycobacterium fortuitum determined by the MTT method

Row | Compound | CC50 (MT4) [µM] | MIC50 (Mycobacterium [1]) [µM] | MIC90 (Mycobacterium [2]) [µM] | MIC90 [3] [µM] | MIC50 [4] [µM] | MIC50 [5] [µM] | MIC50 [6] [µM] | MIC50 [7] [µM] | MIC90 [8] [µM] | MIC90 [9] [µM] | MIC90 [10] [µM]
1 | CC(=O)NC[C@H]1CN(c2ccn(-c3cccc(F)c3)c2)C(=O)O1 | > 100 | 4.6 (≈ 1.46 µg/mL) | 39.8 (≈ 12.6 µg/mL) | 56.3 (≈ 17.9 µg/mL) | 12.9 (≈ 4.09 µg/mL) | 9.4 (≈ 2.98 µg/mL) | > 100 | 14.5 (≈ 4.6 µg/mL) | 91.4 (≈ 29 µg/mL) | 76.9 (≈ 24.4 µg/mL) | –
2 | CC(=O)NC[C@H]1CN(c2ccn(-c3ccc(N4CCOCC4)c(F)c3)c2)C(=O)O1 | > 100 | 16.5 (≈ 6.64 µg/mL) | 100 (≈ 40.2 µg/mL) | > 100 | 12.9 (≈ 5.19 µg/mL) | 49 (≈ 19.7 µg/mL) | > 100 | 42.6 (≈ 17.1 µg/mL) | 100 (≈ 40.2 µg/mL) | > 100 | –
3 | CC(=O)NC[C@H]1CN(c2ccn(-c3ccccc3F)c2)C(=O)O1 | 33.3 | 2 (≈ 0.635 µg/mL) | 8.9 (≈ 2.82 µg/mL) | 15.7 (≈ 4.98 µg/mL) | 3.6 (≈ 1.14 µg/mL) | – | 88.6 (≈ 28.1 µg/mL) | 4.2 (≈ 1.33 µg/mL) | 24.7 (≈ 7.84 µg/mL) | – | > 100
4 | CC(=O)NC[C@H]1CN(c2ccn(-c3ccccc3)c2)C(=O)O1 | > 100 | 4 (≈ 1.2 µg/mL) | 32.8 (≈ 9.82 µg/mL) | 41.3 (≈ 12.4 µg/mL) | 19 (≈ 5.69 µg/mL) | 10.5 (≈ 3.14 µg/mL) | > 100 | 9.8 (≈ 2.93 µg/mL) | 74 (≈ 22.2 µg/mL) | 77.8 (≈ 23.3 µg/mL) | –
5 | NNC(=O)c1ccncc1 [ISONIAZID] | > 100 | 1.4 (≈ 0.192 µg/mL) | 4.7 (≈ 0.645 µg/mL) | 6.7 (≈ 0.919 µg/mL) | 0.09 (≈ 0.0123 µg/mL) | 0.06 (≈ 0.00823 µg/mL) | > 100 | 1.8 (≈ 0.247 µg/mL) | 9.8 (≈ 1.34 µg/mL) | 0.2 (≈ 0.0274 µg/mL) | –
6 | CC(=O)NC[C@H]1CN(c2ccn(N3CCOCC3)c2)C(=O)O1 | > 100 | > 100 | – | – | > 100 | > 100 | > 1000 | > 100 | – | – | –
7 | CC(=O)NC[C@H]1CN(c2ccc(N3CCSCC3)c(F)c2)C(=O)O1 [SUTEZOLID] | > 100 | 0.7 (≈ 0.247 µg/mL) | 5 (≈ 1.77 µg/mL) | 1.6 (≈ 0.565 µg/mL) | 0.1 (≈ 0.0353 µg/mL) | 0.5 (≈ 0.177 µg/mL) | > 100 | 0.5 (≈ 0.177 µg/mL) | 0.9 (≈ 0.318 µg/mL) | 2.5 (≈ 0.884 µg/mL) | –
8 | CC(=O)NC[C@H]1CN(c2ccn(-c3ccc(F)cc3)c2)C(=O)O1 | 100 | 1.4 (≈ 0.444 µg/mL) | 5.8 (≈ 1.84 µg/mL) | 45.8 (≈ 14.5 µg/mL) | 1.9 (≈ 0.603 µg/mL) | – | > 100 | 10.3 (≈ 3.27 µg/mL) | 19.7 (≈ 6.25 µg/mL) | – | –
9 | CC(=O)NC[C@H]1CN(c2ccn(-c3ccc(N4CCSCC4)c(F)c3)c2)C(=O)O1 | 20 | 4.8 (≈ 2.01 µg/mL) | 11.8 (≈ 4.94 µg/mL) | > 100 | 9.8 (≈ 4.1 µg/mL) | 12.2 (≈ 5.11 µg/mL) | > 100 | 34 (≈ 14.2 µg/mL) | 25 (≈ 10.5 µg/mL) | 31 (≈ 13 µg/mL) | –
